Source: PubChem BioAssay (NCI)
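In this assay, cells in 96-well plates receive the compound at five concentrations for 48 hours. Endpoints are linearly interpolated between the surrounding concentrations. TGI: concentration producing complete growth inhibition.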

Key:
Assay in all cases: NCI-60 cell line screen, 48 h
786-0 renal = tested on: 786-0 renal
A498 renal = tested on: A498 renal
A549 NSCLC = tested on: A549 NSCLC
ACHN renal = tested on: ACHN renal
BT-549 breast = tested on: BT-549 breast
CAKI-1 renal = tested on: CAKI-1 renal
CCRF-CEM leukemia = tested on: CCRF-CEM leukemia
COLO 205 colon = tested on: COLO 205 colon
DLD-1 colon = tested on: DLD-1 colon
DMS 114 small cell lung = tested on: DMS 114 small cell lung
DMS 273 small cell lung = tested on: DMS 273 small cell lung
DU-145 prostate = tested on: DU-145 prostate
EKVX NSCLC = tested on: EKVX NSCLC
HCC-2998 colon = tested on: HCC-2998 colon
HCT-116 colon = tested on: HCT-116 colon
HCT-15 colon = tested on: HCT-15 colon
HL-60(TB) leukemia = tested on: HL-60(TB) leukemia
HOP-18 NSCLC = tested on: HOP-18 NSCLC
HOP-62 NSCLC = tested on: HOP-62 NSCLC
HOP-92 NSCLC = tested on: HOP-92 NSCLC
HS 578T breast = tested on: HS 578T breast
HT29 colon = tested on: HT29 colon
IGROV1 ovarian = tested on: IGROV1 ovarian
K-562 leukemia = tested on: K-562 leukemia
KM12 colon = tested on: KM12 colon
KM20L2 colon = tested on: KM20L2 colon
LOX IMVI melanoma = tested on: LOX IMVI melanoma
LXFL 529 NSCLC = tested on: LXFL 529 NSCLC
M14 melanoma = tested on: M14 melanoma
M19-MEL melanoma = tested on: M19-MEL melanoma
MALME-3M melanoma = tested on: MALME-3M melanoma
MCF7 breast = tested on: MCF7 breast
MDA-MB-231 breast = tested on: MDA-MB-231 breast
MDA-MB-435 = tested on: MDA-MB-435
MDA-N = tested on: MDA-N
MOLT-4 leukemia = tested on: MOLT-4 leukemia
NCI-H226 lung = tested on: NCI-H226 lung
NCI-H23 lung = tested on: NCI-H23 lung
NCI-H460 lung = tested on: NCI-H460 lung
NCI-H522 lung = tested on: NCI-H522 lung
OVCAR-3 ovarian = tested on: OVCAR-3 ovarian
OVCAR-4 ovarian = tested on: OVCAR-4 ovarian
OVCAR-5 ovarian = tested on: OVCAR-5 ovarian
OVCAR-8 ovarian = tested on: OVCAR-8 ovarian
PC-3 prostate = tested on: PC-3 prostate
RPMI-8226 leukemia = tested on: RPMI-8226 leukemia
RXF 393 renal = tested on: RXF 393 renal
RXF-631 renal = tested on: RXF-631 renal
SF-268 CNS = tested on: SF-268 CNS
SF-295 CNS = tested on: SF-295 CNS
SF-539 CNS = tested on: SF-539 CNS
SK-MEL-2 melanoma = tested on: SK-MEL-2 melanoma
SK-MEL-28 melanoma = tested on: SK-MEL-28 melanoma
SK-MEL-5 melanoma = tested on: SK-MEL-5 melanoma
SK-OV-3 ovarian = tested on: SK-OV-3 ovarian
SN12C renal = tested on: SN12C renal
SNB-19 CNS = tested on: SNB-19 CNS
SNB-75 CNS = tested on: SNB-75 CNS
SNB-78 CNS = tested on: SNB-78 CNS
SR leukemia = tested on: SR leukemia
SW-620 colon = tested on: SW-620 colon
T-47D breast = tested on: T-47D breast
TK-10 renal = tested on: TK-10 renal
U251 CNS = tested on: U251 CNS
UACC-257 melanoma = tested on: UACC-257 melanoma
UACC-62 melanoma = tested on: UACC-62 melanoma
UO-31 renal = tested on: UO-31 renal
XF 498 CNS = tested on: XF 498 CNS

O=C(O)/C(Cl)=C(/Cl)C(=O)Nc1cccc(Cl)c1
TGI (786-0 renal): 31.8 µM | TGI (A498 renal): > 100 µM | TGI (A549 NSCLC): > 100 µM | TGI (ACHN renal): 36.8 µM | TGI (BT-549 breast): 34.1 µM | TGI (CAKI-1 renal): 16.3 µM | TGI (CCRF-CEM leukemia): 19 µM | TGI (COLO 205 colon): 23.3 µM | TGI (DLD-1 colon): 34 µM | TGI (DMS 114 small cell lung): 32.2 µM | TGI (DMS 273 small cell lung): 18.9 µM | TGI (DU-145 prostate): > 100 µM | TGI (EKVX NSCLC): 33.6 µM | TGI (HCC-2998 colon): 37.1 µM | TGI (HCT-116 colon): 31.8 µM | TGI (HCT-15 colon): 34.9 µM | TGI (HL-60(TB) leukemia): 22.7 µM | TGI (HOP-18 NSCLC): 43.3 µM | TGI (HOP-62 NSCLC): > 76.3 µM | TGI (HOP-92 NSCLC): 30.8 µM | TGI (HS 578T breast): 71.6 µM | TGI (HT29 colon): 42.3 µM | TGI (IGROV1 ovarian): 39 µM | TGI (K-562 leukemia): 40.1 µM | TGI (KM12 colon): 47.7 µM | TGI (KM20L2 colon): 47.3 µM | TGI (LOX IMVI melanoma): 20.8 µM | TGI (LXFL 529 NSCLC): 30.3 µM | TGI (M14 melanoma): 43.2 µM | TGI (M19-MEL melanoma): 30.4 µM | TGI (MALME-3M melanoma): 31.7 µM | TGI (MCF7 breast): 62.8 µM | TGI (MDA-MB-231 breast): 28.1 µM | TGI (MDA-MB-435): 46.5 µM | TGI (MDA-N): 37.4 µM | TGI (MOLT-4 leukemia): 8.45 µM | TGI (NCI-H226 lung): 67.2 µM | TGI (NCI-H23 lung): 36.4 µM | TGI (NCI-H460 lung): > 100 µM | TGI (NCI-H522 lung): 10.1 µM | TGI (OVCAR-3 ovarian): 31.4 µM | TGI (OVCAR-4 ovarian): 33.6 µM | TGI (OVCAR-5 ovarian): 39.7 µM | TGI (OVCAR-8 ovarian): 38.9 µM | TGI (PC-3 prostate): 38.5 µM | TGI (RPMI-8226 leukemia): 46.2 µM | TGI (RXF 393 renal): 30 µM | TGI (RXF-631 renal): 49.1 µM | TGI (SF-268 CNS): 48.3 µM | TGI (SF-295 CNS): > 62.2 µM | TGI (SF-539 CNS): > 70.3 µM | TGI (SK-MEL-2 melanoma): 49.8 µM | TGI (SK-MEL-28 melanoma): 32.8 µM | TGI (SK-MEL-5 melanoma): 33.1 µM | TGI (SK-OV-3 ovarian): 25.4 µM | TGI (SN12C renal): 36.9 µM | TGI (SNB-19 CNS): > 92.5 µM | TGI (SNB-75 CNS): 40.1 µM | TGI (SNB-78 CNS): 61 µM | TGI (SR leukemia): 26.4 µM | TGI (SW-620 colon): 32.1 µM | TGI (T-47D breast): 50.8 µM | TGI (TK-10 renal): 33.8 µM | TGI (U251 CNS): 59.9 µM | TGI (UACC-257 melanoma): 47 µM | TGI (UACC-62 melanoma): 31.7 µM | TGI (UO-31 renal): 37.4 µM | TGI (XF 498 CNS): 34.3 µM
